US20240122872A1, “COMPOSITIONS AND METHODS FOR TREATMENT OF MICROBIAL INFECTIONS” (EpiTop, Inc., priority 2022, published 2024)
Read-outs that look alike come from different tables or passages of the source.

Legend:
[1] = test system: coronavirus (229E-VR740); assay: Relative gene expression of coronavirus 229E in human fibroblasts (real time RT-PCR); assay type: cell-based; conditions: 0.01% or 0.02% thujopsene, 24 hours
Protocol: Human fibroblasts (Atcc.org, CCL-191) were treated with coronavirus (229E) and 0.01% or 0.02% of thujopsene for 24 hours, and then RNAs were isolated and PCRs were performed. Total RNA was isolated according to manufacturer's guidelines. RNeasy Mini Kits (Qiagen, Germantown, MD) were used according to the manufacturer's protocol to isolate RNA. RNA was reverse transcribed into cDNA using SuperScript® VILO™ MasterMix according to manufacturer's protocol and DNA was isolated according to manufacturer's guidelines. cDNAs were analyzed by real time RT-PCR by using an ABI Prism 7300 sequence detector.

[2] = test system: coronavirus 229E (VR-740); assay: Coronavirus 229E-mediated destruction of human fibroblasts (microscopy); assay type: cell-based; conditions: 229E 0.05 pfu/cell, 3 days or 5 days
Protocol: Normal human lung fibroblst (ATCC.org, CCL-191) were seeded at 1×10^5 cells/well in 24 well plates (Becton Dickinson, Torreyana, CA) and allowed to grow to confluence overnight at 37° C., 5% CO2 in Earle's MEM with 10% fetal calf serum (FCS). To examine whether thujopsene prevents coronavirus (229E)-induced destruction of fibroblast, fibroblasts were incubated with thujopsene (0.00, 0.01 or 0.02%) and 229E (0.05 pfu/cell) for 3 days or 5 days at 37° C. and 5% CO2. Then cell images (x25 magnification) were taken with the microscopy (Leica, Wetzler, Germany).

[3] = test system: Streptococcus pyogenes (ATCC BAA-19615); assay: Bactericidal assay (colony count), S. pyogenes; conditions: 2 hours at 37° C.; concentration as low as 0.0001%; thujopsene (0.001%), totarol (0.0001%) or combination
[4] = test system: Vaccinia virus (VV); assay type: cell-based
[5] = test system: HSV-1; assay: HSV-1 plaque assay (virus incubated with thujopsene, BS-C-1 cells); assay type: cell-based
Protocol: BS-C-1 African green monkey kidney cells were seeded at 2×10^5 cells/well in 24 well plates (Becton Dickinson, Torreyana, CA) and allowed to grow to confluence overnight at 37° C., 5% CO2 in Earle's MEM with 10% fetal calf serum (FCS). To examine the effects of thujopsene, 0, 0.01, and 0.02% of thujopsene were incubated with […] HSV-1 for 2 or 4 hours, at 37° C. and 5% CO2. For the plaque assay, the medium was removed and wells were overlaid with 0.5 ml 4% buffered formalin, allowed to fix for 10 minutes at room temperature. The formalin was removed and 0.5 ml 0.1% crystal violet in PBS was added to the wells for 5 minutes at room temperature. Wells were then aspirated and the air-dried for visualization of plaques.

Structure (SMILES)	Relative gene expression of 229E (coronavirus VR740) ([1]; 0.01 pfu/cell)	Relative gene expression of 229E (coronavirus VR740) ([1]; 0.05 pfu/cell)	Cellular structure of fibroblasts after treatment with coronavirus 229E ([2]; 0.01% thujopsene)	Cellular structure of fibroblasts after treatment with coronavirus 229E ([2]; 0.02% thujopsene)	Inhibition of S. Pyogenes [3]	Decrease of titers of virus ([4]; 2-hour incubation with 0.02% thujopsene)	Decrease of titers of virus ([4]; 4-hour incubation with 0.02% thujopsene)	Decrease of titers of virus ([5]; 2-hour incubation with 0.01% thujopsene)	Decrease of titers of virus ([5]; 2-hour incubation with 0.01% thujopsene (first statement))	Decrease of titers of virus ([5]; 4-hour incubation with 0.01% thujopsene)
CC1=CC[C@]2(C)CCCC(C)(C)[C@@]23C[C@@H]13 [thujopsene]	decreased in a dose-dependent manner	decreased in a dose-dependent manner	the cellular structures were maintained	the cellular structures were maintained	significantly inhibited	at least 25%	at least 25%	at least 90%	at least 50%	at least 90%
CC(C)c1c(O)ccc2c1CC[C@H]1C(C)(C)CCC[C@]21C [totarol]	–	–	–	–	significantly inhibited	–	–	–	–	–
